The values that follow come from patent US20130130912A1, “AGROCHEMICAL FORMULATION COMPOSITION” (priority 2010, published 2013).

Each structure is given as a SMILES string.

A short description of data set [1]: solubility of pesticide actives in dialkyl carbonate solvents (CIPAC method MT181). The conditions noted are these: 20 deg C.; for solubility in Bis-(2-ethylhexyl) carbonate solvent: Bis-(2-ethylhexyl) carbonate solvent (comparative). Type of data set: physicochemical. The text has this:
All solubility measurements are done according to the CIPAC method MT181.

Data set [2] can be described thus: phytotoxic properties of dialkyl carbonates. From the text:
A further advantage of the dialkylcarbonates used, is their compatibility with construction materials used in spraying equipment.

For the compound `O=C(Nc1ccc(F)cc1F)c1cccnc1Oc1cccc(C(F)(F)F)c1` [Diflufenican], in data set [1], the “solubility in Bis-(2-ethylhexyl) carbonate solvent” value was less than 10 grams/litre, the “SOLUBILITY OF PESTICIDE ACTIVES IN di-n-butylcarbonate (DNBC) SOLVENT” value is recorded as less than 50 grams/litre and the “solubility in di-n-pentyl carbonate solvent” value was 14-20 grams/litre.
As to `CCNc1nc(NC(C)C)nc(SC)n1` [Ametryn], in data set [1], the “solubility in Bis-(2-ethylhexyl) carbonate solvent” value is recorded as 80-100 grams/litre, the “SOLUBILITY OF PESTICIDE ACTIVES IN di-n-butylcarbonate (DNBC) SOLVENT” value came to 350 grams/litre, the “solubility in di-n-pentyl carbonate solvent” value worked out at 120 grams/litre and the “SOLUBILITY OF PESTICIDE ACTIVES IN di-n-propylcarbonate (DNPC) SOLVENT” value is greater than 250 grams/litre.
For `CCC(CC)Nc1c([N+](=O)[O-])cc(C)c(C)c1[N+](=O)[O-]` [Pendimethalin] the same measures were 80-100 grams/litre, greater than 300 grams/litre, greater than 100 grams/litre and greater than 300 grams/litre.
Take `CC(C)(C)C(O)C(Oc1ccc(Cl)cc1)n1cncn1` (centres unmarked) [Triadimenol]: in data set [1], the “solubility in Bis-(2-ethylhexyl) carbonate solvent” value is listed as less than 10 grams/litre, the “SOLUBILITY OF PESTICIDE ACTIVES IN di-n-butylcarbonate (DNBC) SOLVENT” value is recorded as 45 grams/litre and the “solubility in di-n-pentyl carbonate solvent” value is on record as 20-25 grams/litre.
With `Fc1ccc([C@]2(Cn3cncn3)O[C@H]2c2ccccc2Cl)cc1` (racemic) [Epoxiconazole], in data set [1], the “solubility in Bis-(2-ethylhexyl) carbonate solvent” value is less than 10 grams/litre, the “SOLUBILITY OF PESTICIDE ACTIVES IN di-n-butylcarbonate (DNBC) SOLVENT” value was 45 grams/litre and the “solubility in di-n-pentyl carbonate solvent” value was 20-25 grams/litre.
For `CCc1cccc(C)c1N(C(=O)CCl)C(C)COC` (centres unmarked) [Metolachlor], in data set [1], the “solubility in Bis-(2-ethylhexyl) carbonate solvent” value is on record as greater than 200 grams/litre, the “SOLUBILITY OF PESTICIDE ACTIVES IN di-n-butylcarbonate (DNBC) SOLVENT” value is recorded as greater than 600 grams/litre and the “solubility in di-n-pentyl carbonate solvent” value was greater than 200 grams/litre.
For `CC(C)(C)C(O)(CCc1ccc(Cl)cc1)Cn1cncn1` (centres unmarked) [Tebuconazole], in data set [1], the “solubility in Bis-(2-ethylhexyl) carbonate solvent” value is listed as less than 10 grams/litre, the “SOLUBILITY OF PESTICIDE ACTIVES IN di-n-butylcarbonate (DNBC) SOLVENT” value is 140 grams/litre, the “solubility in di-n-pentyl carbonate solvent” value is recorded as 33-40 grams/litre and the “SOLUBILITY OF PESTICIDE ACTIVES IN di-n-propylcarbonate (DNPC) SOLVENT” value is given as greater than 100 grams/litre.
On to `CCCN(CCC)c1c([N+](=O)[O-])cc(C(F)(F)F)cc1[N+](=O)[O-]` [Trifluralin], for which, in data set [1], the “solubility in Bis-(2-ethylhexyl) carbonate solvent” value is 80-100 grams/litre, the “SOLUBILITY OF PESTICIDE ACTIVES IN di-n-butylcarbonate (DNBC) SOLVENT” value was greater than 600 grams/litre, the “solubility in di-n-pentyl carbonate solvent” value is greater than 250 grams/litre and the “SOLUBILITY OF PESTICIDE ACTIVES IN di-n-propylcarbonate (DNPC) SOLVENT” value is given as greater than 600 grams/litre.
For the compound `CCCCOC(=O)OCCCC` [di-n-butyl carbonate, di-n-butylcarbonate], the phytotoxicity entry in data set [2] was “not to be phytotoxic”.
